Reference: patent publication US20190209585A1, “COMBINATION THERAPY COMPRISING A POLYUNSATURATED KETONE AND A SECOSTEROID” (Avexxin AS, priority 2016, published 2019)
“Also recorded” adds a separate entry of the source.

How the values were obtained:
[1] = system: HaCaT cells; assay: Resazurin assay of HaCaT keratinocyte cell proliferation and viability
Method: (§1) The spontaneously immortalized, nontumorigenic skin keratinocyte cell line HaCaT was maintained in DMEM supplemented with 5% (v/v) FBS, 0.3 mg/ml glutamine and 0.1 mg/ml gentamicin at 37° C. with 5% CO2 in a humidified atmosphere. Subculture using trypsin-EDTA was performed every 3-4 days with split ratio of 1:3-1:4 to ensure actively proliferating cells.
(§2) Cells were seeded in 96 well plates in fully supplemented medium at a density of 2500 cells per well. Following 72 hours of cultivation, the cells were starved of serum in 0.25% FBS/DMEM overnight to halt proliferation, synchronize and to increase cell sensitivity to treatment. On day 4, the cells were treated with cPLA2α inhibitor Compound A and vitamin D analogue Calcipotriol hydrate (Sigma Aldrich #C4369) and left to incubate for […] in incubator at 37° C. with 5% CO2 in a humidified atmosphere before fluorescence was read at 544 nm excitation and 590 nm emission wavelength. The cells were observed under the microscope to evaluate possible morphology changes and signs of stress before addition of resazurin. The experiments were performed in series of 8 wells per treatment and repeated 2-3 times.
as §2, with “hour” for “hours”, “synchronize the cells” for “synchronize”, “corticosteroid Betamethasone 17, 21-dipropionate (Sigma Aldrich #B1152)” for “cPLA2α inhibitor Compound A”, “#C4369) for 24 hours. On day 5, resazurin was added according to the manufacturer's instruction (RnD Systems, UK)” for “#C4369)”
as §2, with “3000” for “2500”, “48-72 hour” for “72 hours”, “synchronize the cells” for “synchronize”, “Next day,” for “On day 4,”, “compound” for “cPLA2α inhibitor Compound”, “or calcipotriol for 24 hours. Resazurin was added next day according to the manufacturer's instruction (RnD Systems, UK)” for “and vitamin D analogue Calcipotriol hydrate (Sigma Aldrich #C4369)”
as §1, with “1:4” for “1:3-1:4”
Cells were seeded in 96 well plates in fully supplemented medium at a density of 3000 cells per well. Following 72 hour of cultivation, the cells were starved of serum in 0.25% FBS/DMEM overnight to halt proliferation, synchronize the cells and to increase cell sensitivity to treatment. Next day, the cells were treated with Compound A, vitamin D analogue Calcipotriol and corticosteroid hormone receptor agonist Betamethasone dipropionate for 24 hours.

[2] = system: PGE2 production in PBMC challenged with LPS; assay: PGE2 enzyme immunoassay of supernatants of PBMC challenged with LPS; assay type: cell-based, human
Method: Blood from healthy, consenting blood donors was collected at St. Olays Hospital HF, Trondheim, Norway.
From each donor, 2×6 ml heparin tubes with blood were used. Peripheral blood mononuclear cells (PBMC) were isolated using 50 mL SepMate™ tubes ([…]™ Technology, UK) and Lymphoprep™ (Fresenius Kabi, N) density gradient according to the manufacturers instructions.
PBMC were resuspended in RPMI-1640 cell culture medium complemented with 5% heat-inactivated fetal bovine serum (FBS), 0.03% glutamine, 0.01 mg/mL gentamicin and 3.4 ppm β-mercaptoethanol (all reagents from Sigma-Aldrich). […]
PGE2 enzyme immunoassay analysis of PBMC supernatants was performed according to the kit protocol (Cayman Chemicals, #514010, USA). […] The plate was read at OD 420 nm using a Cytation 5 imaging reader from BioTek and data acquired with the corresponding software Gen5 2.09. A four-parameter logistic model was fit to the absorbance data to determine PGE2 levels using the Cayman PGE2 protocol. […]
Accordingly, we isolated peripheral blood mononuclear cells, treated them with various doses and combinations of Compound A and calcipotriol and finally added LPS as a trigger to mount a broad inflammatory response. The cell supernatants collected following 72 hrs of LPS stimulation were next analyzed with respect to levels of PGE2, a key proinflammatory mediator close to the cPLA2α target.

Row | Compound | reduction of cell proliferation and viability ([1]; Example 2, 24 hours, 50 μM Betamethasone alone) [%] | increase of PGE2 ([2]; calcipotriol 0.5 μM alone) [%] | effect on PGE2 levels ([2]; high doses of calcipotriol alone (<0.5 μM)) | effect on proliferation and viability of HaCaT cells ([1]; Example 1, 10 μM, alone) | effect on HaCaT cell viability ([1]; Example 3/4, 24 hours, 15 μM, alone) | effect on HaCaT cell viability ([1]; Example 3, 24 hours, doses 1-10 μM, alone) | effect on HaCaT cell viability ([1]; Example 4, 10 μM, alone) | cytotoxicity at 10 µM ([1]; Homo sapiens, HaCaT, 24 h, read-out: reduction of cell proliferation and viability) [%]
1 | CCC(=O)OCC(=O)[C@@]1(OC(=O)CC)[C@@H](C)C[C@H]2[C@@H]3CCC4=CC(=O)C=C[C@]4(C)[C@@]3(F)[C@@H](O)C[C@@]21C [Betamethasone, Betamethasone 17, 21-dipropionate] | 10 |  |  |  |  |  |  | 
2 | C=C1/C(=C\C=C2/CCC[C@]3(C)[C@@H]([C@H](C)/C=C/[C@@H](O)C4CC4)CC[C@@H]23)C[C@@H](O)C[C@@H]1O [Calcipotriol] |  | 18 | PGE2 levels increased | little or no effect | affect cell viability; also recorded: reduced cell viability | no signs of impairment in cell viability | no signs of impairment in cell viability | 20
